{"source": "patent US10660959B2", "about": "“Formulations of a PI3K/mTOR-inhibitor for intravenous administration” (Pfizer Inc., priority 2014, dated 2020)", "type_in_all_cases": "physicochemical", "key": {"[1]": {"experiment": "Visual observation of solution clarity (light box per European Pharmacopoeia Method 2.9.20, black and white background, Tyndall beam)", "from_the_text": "A clear solution is defined as a visually clear solution essentially free from any visible particulates that can be observed on a visual inspection. Generally, if any particulate matter is observed, the formulation is not suitable for intravenous administration and should not be utilised as occlusion of blood vessels may occur. Accordingly, in view of the qualitative nature of the visual test, the term “essentially free from any visible particulates” is usually applied when no visible particulate matter is observed.\nThe visual inspection can be conducted in accordance with the method defined in European Pharmacopoeia Method 2.9.20 entitled “Particulate contamination: visible particles”. […]\nBy this method the solution in the vial was visually inspected in a Verivide DCAC60 (trade mark) light cabinet using a light meter reading of 3250 lux against a matt black panel and a white panel.\nAt the end of the 5 day period the pH of each sample was measured and a visual observation of each sample was made using a light box as described in European Pharmacopoeia Method 2.9.20 (above), inspecting the samples against a black and a white background. […]\nThese samples were visually assessed made using a light box as described in European Pharmacopoeia Method 2.9.20 (above), inspecting the samples against a black and a white background. […] The pH was also measured. […]"}, "[2]": {"experiment": "pH measurement of aqueous formulation samples", "settings": "for pH after dilution: roller bed overnight; for pH Check after 6 Days / pH Check after 48 hours: Investigation 5; for pH: Investigation 6, 15 hours", "description": "At the end of the 5 day period the pH of each sample was measured and a visual observation of each sample was made using a light box as described in European Pharmacopoeia Method 2.9.20 (above), inspecting the samples against a black and a white background. The sample was also tested by illumination using a narrow (Tyndall) beam light source and then visually inspected from a direction perpendicular to the light beam in order to identify undissolved solid particles.\nAt the end of the specified rolling period the pH of each sample was measured and a visual observation of each sample was made using a light box as described in European Pharmacopoeia Method 2.9.20 (above), inspecting the samples against a black and a white background. The sample was also tested by illumination using a narrow (Tyndall) beam light source and then visually inspected from a direction perpendicular to the light beam in order to identify undissolved solid particles.\nThese samples were visually assessed made using a light box as described in European Pharmacopoeia Method 2.9.20 (above), inspecting the samples against a black and a white background. The sample was also tested by illumination using a narrow (Tyndall) beam light source and then visually inspected from a direction perpendicular to the light beam in order to identify undissolved solid particles. The pH was also measured.\nThese samples were visually assessed using a light box as described in European Pharmacopoeia Method 2.9.20 (above), inspecting the samples against a black and a white background. The sample was also tested by illumination using a narrow (Tyndall) beam light source and then visually inspected from a direction perpendicular to the light beam in order to identify undissolved solid particles. The pH was also measured.\nThe diluted samples were placed on a roller bed overnight in order to reach equilibrium. The pH was also measured.\nThese samples were visually assessed using a light box as described in European Pharmacopoeia method 2.9.20 (above), inspecting the samples against a black and a white background. The sample was also tested by illumination using a narrow (Tyndall) beam light source and then visually inspected from a direction perpendicular to the light beam in order to identify undissolved solid particles. […] The pH was also measured."}, "[3]": {"experiment": "Chemical and physical stability of crystalline free base on storage", "settings": "crystalline form, 25° C. and 60% Relative Humidity"}, "[4]": {"experiment": "Water solubility of free base", "settings": "for aqueous solution formulation at therapeutic dosage levels"}, "[5]": {"settings": "Investigation 4, 3 mg/mL with 6.8 mole equivalents orthophosphoric acid (33.3 mM), roller bed room temperature ca. 19 hours, N = 1-3"}}, "note": "Where “and” joins values, the source holds several entries; their conditions need not be identical. Equal entries are not always repeated.", "data": [{"smiles": "CN(C)C1CCN(C(=O)c2ccc(NC(=O)Nc3ccc(-c4nc(N5CCOCC5)nc(N5CCOCC5)n4)cc3)cc2)CC1", "note": "[1-(4-{[4-(Dimethylamino)piperidin-1-yl]carbonyl}phenyl)-3-[4-(4,6-dimorpholin-4-yl-1,3,5-triazin-2-yl)phenyl]urea]", "values": [{"measurement": "Visual assessment", "setting": "[1]; [5]", "value": "Clear"}, {"measurement": "Visual assessment", "setting": "[1]; Investigation 5, 3, 4 and 5 mg/mL in 33.3 mM acetic acid buffer pH 3.35, roller bed room temperature, 24 hour, 48 hour, 72 hour and 6 day periods", "value": "does not produce a clear solution"}, {"measurement": "Final pH", "setting": "[2]; [5]", "value": "2.15 and 2.17"}, {"measurement": "pH after dilution", "setting": "[2]; Investigation 4, orthophosphoric acid samples diluted to 0.05 mg/mL", "value": "3.47 and 3.48 and 3.49"}, {"measurement": "pH after dilution", "setting": "[2]; Investigation 4, orthophosphoric acid samples diluted to 0.1 mg/mL", "value": "3.21 and 3.20"}, {"measurement": "pH after dilution", "setting": "[2]; Investigation 4, orthophosphoric acid samples diluted to 0.5 mg/mL", "value": "2.64 and 2.63"}, {"measurement": "pH Check after 6 Days", "setting": "[2]; 3 mg/mL in 33.3 mM acetic acid", "value": "3.99 and 3.95 and 3.96"}, {"measurement": "pH Check after 48 hours", "setting": "[2]; 3 mg/mL in 33.3 mM acetic acid", "value": "3.89 and 3.90"}, {"measurement": "pH Check after 6 Days", "setting": "[2]; 4 mg/mL in 33.3 mM acetic acid", "value": "4.03 and 4.04"}, {"measurement": "pH Check after 48 hours", "setting": "[2]; 4 mg/mL in 33.3 mM acetic acid", "value": "3.94 and 3.95"}, {"measurement": "pH Check after 6 Days", "setting": "[2]; 5 mg/mL in 33.3 mM acetic acid", "value": "4.18 and 4.19"}, {"measurement": "pH Check after 48 hours", "setting": "[2]; 5 mg/mL in 33.3 mM acetic acid", "value": "3.99 and 4.00"}, {"measurement": "pH", "setting": "[2]; 3 mg/mL, ca. 6.8 mole equivalents orthophosphoric acid", "value": "2.02 and 2.03 and 2.05"}, {"measurement": "pH", "setting": "[2]; 3.5 mg/mL, ca. 5.9 mole equivalents orthophosphoric acid", "value": "2.09 and 2.07"}, {"measurement": "chemically and physically stable (duration)", "setting": "[3]", "value": "up to 3 years"}, {"measurement": "water solubility", "setting": "[4]", "value": "insufficiently water soluble"}]}]}
